Test results published in ChEMBL document CHEMBL1629608, “Variations in amino acid composition of antisense peptide-phosphorodiamidate morpholino oligomer affect potency against Escherichia coli in vitro and in vivo” (Antimicrob Agents Chemother, 2009).
In brackets after ≈: the same amount, converted by molar mass.

Tested on: Escherichia coli
Assay: Antibacterial activity against Escherichia coli K-12 W3110 by microdilution method
Assay type: functional
Settings: K-12 substr. W3110

Row | SMILES | MIC
1 | Cc1cn([C@H]2CN(P(=O)(OC[C@@H]3CN(P(=O)(OC[C@@H]4CN(P(=O)(OC[C@@H]5CN(P(=O)(OC[C@@H]6CN(P(=O)(OC[C@@H]7CN(P(=O)(OC[C@@H]8CN(P(=O)(OC[C@@H]9CN(P(=O)(OC[C@@H]%10CNC[C@H](n%11cnc%12c(=O)[nH]c(N)nc%12%11)O%10)N(C)C)C[C@H](n%10cc(C)c(=O)[nH]c%10=O)O9)N(C)C)C[C@H](n9cnc%10c(=O)[nH]c(N)nc%109)O8)N(C)C)C[C@H](n8cnc9c(N)ncnc98)O7)N(C)C)C[C@H](n7cc(C)c(=O)[nH]c7=O)O6)N(C)C)C[C@H](n6cnc7c(N)ncnc76)O5)N(C)C)C[C@H](n5cnc6c(=O)[nH]c(N)nc65)O4)N(C)C)C[C@H](n4ccc(N)nc4=O)O3)N(C)C)C[C@@H](COP(=O)(N(C)C)N3C[C@@H](COP(=O)(N(C)C)N4C[C@@H](COP(=O)(N(C)C)N5CCN(C(=O)CCNC(=O)CCCCCNC(=O)[C@H](CCCNC(=N)N)NC(=O)CCCCCNC(=O)[C@@H](N)CCCNC(=N)N)CC5)O[C@@H](n5ccc(N)nc5=O)C4)O[C@@H](n4cc(C)c(=O)[nH]c4=O)C3)O2)c(=O)[nH]c1=O (stereo partly drawn) | > 80 µM
2 | Cc1cn([C@H]2CN(P(=O)(OC[C@@H]3CN(P(=O)(OC[C@@H]4CN(P(=O)(OC[C@@H]5CN(P(=O)(OC[C@@H]6CN(P(=O)(OC[C@@H]7CN(P(=O)(OC[C@@H]8CN(P(=O)(OC[C@@H]9CN(P(=O)(OC[C@@H]%10CNC[C@H](n%11cnc%12c(=O)[nH]c(N)nc%12%11)O%10)N(C)C)C[C@H](n%10cc(C)c(=O)[nH]c%10=O)O9)N(C)C)C[C@H](n9cnc%10c(=O)[nH]c(N)nc%109)O8)N(C)C)C[C@H](n8cnc9c(N)ncnc98)O7)N(C)C)C[C@H](n7cc(C)c(=O)[nH]c7=O)O6)N(C)C)C[C@H](n6cnc7c(N)ncnc76)O5)N(C)C)C[C@H](n5cnc6c(=O)[nH]c(N)nc65)O4)N(C)C)C[C@H](n4ccc(N)nc4=O)O3)N(C)C)C[C@@H](COP(=O)(N(C)C)N3C[C@@H](COP(=O)(N(C)C)N4C[C@@H](COP(=O)(N(C)C)N5CCN(C(=O)CCNC(=O)CCCCCNC(=O)[C@H](Cc6ccccc6)NC(=O)[C@H](Cc6ccccc6)NC(=O)[C@@H](N)CCCNC(=N)N)CC5)O[C@@H](n5ccc(N)nc5=O)C4)O[C@@H](n4cc(C)c(=O)[nH]c4=O)C3)O2)c(=O)[nH]c1=O (stereo partly drawn) | > 80 µM
3 | Cc1cn([C@H]2CN(P(=O)(OC[C@@H]3CN(P(=O)(OC[C@@H]4CN(P(=O)(OC[C@@H]5CN(P(=O)(OC[C@@H]6CN(P(=O)(OC[C@@H]7CN(P(=O)(OC[C@@H]8CN(P(=O)(OC[C@@H]9CN(P(=O)(OC[C@@H]%10CNC[C@H](n%11cnc%12c(=O)[nH]c(N)nc%12%11)O%10)N(C)C)C[C@H](n%10cc(C)c(=O)[nH]c%10=O)O9)N(C)C)C[C@H](n9cnc%10c(=O)[nH]c(N)nc%109)O8)N(C)C)C[C@H](n8cnc9c(N)ncnc98)O7)N(C)C)C[C@H](n7cc(C)c(=O)[nH]c7=O)O6)N(C)C)C[C@H](n6cnc7c(N)ncnc76)O5)N(C)C)C[C@H](n5cnc6c(=O)[nH]c(N)nc65)O4)N(C)C)C[C@H](n4ccc(N)nc4=O)O3)N(C)C)C[C@@H](COP(=O)(N(C)C)N3C[C@@H](COP(=O)(N(C)C)N4C[C@@H](COP(=O)(N(C)C)N5CCN(C(=O)CCNC(=O)CCCCCNC(=O)[C@H](CCCNC(=N)N)NC(=O)CCNC(=O)[C@H](CCCNC(=N)N)NC(=O)[C@H](CCCNC(=N)N)NC(=O)CCCCCNC(=O)[C@H](CCCNC(=N)N)NC(=O)NC(=O)[C@H](CCCNC(=N)N)NC(=O)CCNC(=O)[C@H](CCCNC(=N)N)NC(=O)[C@H](CCCNC(=N)N)NC(=O)CCCCCNC(=O)[C@@H](N)CCCNC(=N)N)CC5)O[C@@H](n5ccc(N)nc5=O)C4)O[C@@H](n4cc(C)c(=O)[nH]c4=O)C3)O2)c(=O)[nH]c1=O (stereo partly drawn) | 2.5 µM (≈ 14.1 µg/mL)
